Test results published in ChEMBL document CHEMBL1129240, “Synthesis of acyclo-C-nucleosides in the imidazo[1,2-a]pyridine and pyrimidine series as antiviral agents” (J Med Chem, 1996).
In brackets after ≈: the same amount, converted by molar mass.

Legend:
[1] = Cytotoxic concentration required to reduce CEM cell viability by 50%; format: cell-based; conditions: human, CCRF-CEM (CEM) cells
[2] = Cytotoxic concentration required to cause microscopically detectable alteration of normal cell morphology of E6SM cells; format: cell-based; conditions: human, read-out: CC50
[3] = (§1) Cytotoxic concentration required to cause microscopically detectable alteration of normal cell morphology of HeLa cells; format: cell-based; conditions: human, read-out: CC50
[4] = (§2) Cytotoxic concentration required to cause microscopically detectable alteration of normal cell morphology of Vero cells; format: cell-based; conditions: chlorocebus sabaeus, read-out: CC50
HeLa = assay: as §1; format: cell-based; conditions: Homo sapiens
Vero = assay: as §2; format: cell-based; conditions: Chlorocebus sabaeus
Human alphaherpesvirus 3 [5] = assay: Minimum Inhibitory Concentration (MIC) for activity against Varicella-Zoster Virus(VZV) using OKA (TK+) strain; format: functional
Human alphaherpesvirus 3 [6] = assay: Minimum Inhibitory Concentration (MIC) tested for activity against Varicella-Zoster Virus(VZV) using YS/R (TK-) strain.; format: functional
Cytomegalovirus [7] = assay: Minimum Inhibitory Concentration (MIC) tested for activity against Cytomegalovirus (CMV) using Davis strain; format: functional; conditions: Human betaherpesvirus 5
Human alphaherpesvirus 3 [8] = assay: Minimum Inhibitory Concentration (MIC) tested for activity against Varicella-Zoster Virus(VZV) using 07/1 (TK-) strain.; format: functional
[9] = Minimum cytotoxic concentration to reduce the HEL cell proliferation by 50%; format: cell-based; conditions: human, HEL cells; read-out: MCC
Human alphaherpesvirus 3 [10] = assay: Minimum Inhibition Concentration (MIC) for activity against Varicella-Zoster Virus(VZV) using YS(TK+) strain.; format: functional
Cytomegalovirus [11] = assay: Minimum Inhibitory Concentration (MIC) tested for activity against Cytomegalovirus (CMV) using AD169 strain; format: functional; conditions: Human betaherpesvirus 5
Cytomegalovirus [12] = assay: Minimum Inhibition Concentration (MIC) for activity against Cytomegalovirus (CMV) using Davis strain; format: functional; conditions: Human betaherpesvirus 5
Human alphaherpesvirus 3 [13] = assay: Minimum Inhibition Concentration (MIC) for activity against Varicella-Zoster Virus (VZV) using YS (TK+) strain.; format: functional
Human alphaherpesvirus 3 [14] = assay: Minimum Inhibition Concentration (MIC) for activity against Varicella-Zoster Virus(VZV) using OKA (TK+) strain; format: functional
Human alphaherpesvirus 3 [15] = assay: Minimum Inhibition Concentration (MIC) for activity against Varicella-Zoster Virus (VZV) using YS/R (TK-) strain.; format: functional
Cytomegalovirus [16] = assay: Minimum Inhibition Concentration (MIC) for activity against Cytomegalovirus (CMV) using AD169 strain; format: functional; conditions: Human betaherpesvirus 5
Human alphaherpesvirus 3 [17] = assay: Minimum Inhibitory Concentration (MIC) tested for activity against Varicella-Zoster Virus(VZV) using YS(TK+) strain.; format: functional
Human alphaherpesvirus 3 [18] = assay: Minimum Inhibition Concentration (MIC) for activity against Varicella-Zoster Virus(VZV) using YS/R (TK-) strain.; format: functional
Human alphaherpesvirus 3 [19] = assay: Minimum Inhibition Concentration (MIC) for activity against Varicella-Zoster Virus(VZV) using YS/R (TK-) strain; format: functional
Human alphaherpesvirus 3 [20] = assay: Minimum Inhibition Concentration (MIC) for activity against Varicella-Zoster Virus(VZV) using YS(TK+) strain; format: functional
[21] = Minimum cytotoxic concentration required to reduce human embryonic lung (HEL) cell proliferation by 50%; format: cell-based; conditions: human embryonic lung (HEL) cells, read-out: MCC
Human alphaherpesvirus 3 [22] = assay: Minimum Inhibition Concentration (MIC) for activity against Varicella-Zoster Virus(VZV) using 07/1 (TK-) strain.; format: functional
Human alphaherpesvirus 3 [23] = assay: Minimum Inhibition Concentration( MIC) for activity against Varicella-Zoster Virus(VZV) using 07/1 (TK-) strain.; format: functional
Human alphaherpesvirus 3 [24] = assay: Minimum Inhibition Concentration( MIC) for activity against Varicella-Zoster Virus(VZV) using YS/R (TK-) strain.; format: functional

Row | Structure (SMILES) | CC50 [1] [µg/mL] | MCC [2] [µg/mL] | MCC [3] [µg/mL] | MCC [4] [µg/mL] | MIC (Human alphaherpesvirus 3 [5]) [µg/mL] | MIC (Human alphaherpesvirus 3 [6]) [µg/mL] | MIC (Cytomegalovirus [7]) [µg/mL] | MIC (Human alphaherpesvirus 3 [8]) [µg/mL] | CC50 [9] [µg/mL] | MIC (Human alphaherpesvirus 3 [10]) [µg/mL] | MIC (Cytomegalovirus [11]) [µg/mL] | MIC (Human alphaherpesvirus 3 [14]) [µg/mL] | MIC (Human alphaherpesvirus 3 [17]) [µg/mL] | other results
1 | Cc1cccc2ncc(CSCc3ccccc3)n12 | 9.9 (≈ 36.9 µM) | 10 | 40 | 40 | – | – | – | – | – | – | – | – | – | –
2 | CCCCOc1ccc(S(=O)(=O)[C@@](C)(Cc2ccc(OCCN3CCCCC3)cc2)C(=O)NO)cc1 | – | – | – | – | – | – | – | – | – | – | – | – | – | EC50 (HeLa): > 400 µg/mL; EC50 (Vero): > 400 µg/mL
3 | Cc1c(Br)c(C)n2c(CSCCO)cnc2c1Br | 17 (≈ 43.1 µM) | 100 | > 200 | > 200 | > 40 | > 10 | > 10 | > 40 | 70 (≈ 178 µM) | > 40 | > 10 | – | – | –
4 | Cc1ccn2c(CSCc3ccccc3)cnc2c1 | 3.1 (≈ 11.6 µM) | 100 | 40 | 40 | – | – | – | – | 45 (≈ 168 µM) | – | – | 15 (≈ 55.9 µM) | – | MIC (Cytomegalovirus [12]): 3.5 µg/mL (≈ 13 µM); MIC (Human alphaherpesvirus 3 [13]): 17 µg/mL (≈ 63.3 µM); MIC (Human alphaherpesvirus 3 [15]): 10 µg/mL (≈ 37.3 µM); MIC (Cytomegalovirus [16]): 3.5 µg/mL (≈ 13 µM)
5 | Cc1cccc2ncc(CSCC(C)O)n12 (stereo unspecified) | 27 (≈ 114 µM) | 400 | 100 | > 400 | – | 24 (≈ 102 µM) | > 10 | 24 (≈ 102 µM) | 90 (≈ 381 µM) | – | > 10 | 30 (≈ 127 µM) | 20 (≈ 84.6 µM) | –
6 | Cc1ccn2c(CSCC(O)CO)cnc2c1 (stereo unspecified) | > 100 | > 400 | 400 | > 400 | 100 (≈ 396 µM) | 50 (≈ 198 µM) | > 50 | – | > 100 | – | > 50 | – | > 100 | –
7 | CCSCc1cnc2c(C)cccn12 | 4.1 (≈ 19.9 µM) | 200 | 10 | 400 | 10 (≈ 48.5 µM) | – | 2 (≈ 9.69 µM) | 6.8 (≈ 33 µM) | 35 (≈ 170 µM) | – | 2 (≈ 9.69 µM) | – | 5 (≈ 24.2 µM) | MIC (Human alphaherpesvirus 3 [18]): > 10 µg/mL
8 | OCCSCc1cnc2ccccn12 | 29 (≈ 139 µM) | 400 | 200 | 400 | 25 (≈ 120 µM) | – | 35 (≈ 168 µM) | – | – | – | 40 (≈ 192 µM) | – | – | MIC (Human alphaherpesvirus 3 [19]): 25 µg/mL (≈ 120 µM); MIC (Human alphaherpesvirus 3 [20]): 25 µg/mL (≈ 120 µM); CC50 [21]: > 100 µg/mL
9 | Cc1ccn2c(CSCCCO)cnc2c1 | 17 (≈ 71.9 µM) | > 100 | 40 | > 40 | – | > 40 | 30 (≈ 127 µM) | – | > 100 | > 40 | 30 (≈ 127 µM) | > 40 | – | MIC (Human alphaherpesvirus 3 [22]): > 40 µg/mL
10 | Cc1c(Br)c(C)n2c(CSCc3ccccc3)cnc2c1Br | 35 (≈ 79.5 µM) | > 40 | > 100 | > 40 | – | – | 4 (≈ 9.09 µM) | – | > 100 | > 40 | 1.7 (≈ 3.86 µM) | > 40 | – | MIC (Human alphaherpesvirus 3 [22]): 40 µg/mL (≈ 90.9 µM); MIC (Human alphaherpesvirus 3 [18]): 40 µg/mL (≈ 90.9 µM)
11 | c1ccc(CSCc2cnc3ncccn23)cc1 | 4.2 (≈ 16.4 µM) | 100 | 40 | 200 | 8.8 (≈ 34.5 µM) | – | 2 (≈ 7.83 µM) | 5 (≈ 19.6 µM) | 40 (≈ 157 µM) | – | 2 (≈ 7.83 µM) | – | 2.4 (≈ 9.4 µM) | MIC (Human alphaherpesvirus 3 [18]): > 10 µg/mL
12 | OCCCSCc1cnc2c(Cl)cc(C(F)(F)F)cn12 | 27 (≈ 83.1 µM) | 100 | 100 | > 100 | > 40 | > 40 | > 40 | > 40 | > 100 | > 40 | > 40 | – | – | –
13 | Cc1c(Br)cn2c(CSCCO)cnc2c1Br | 37 (≈ 97.3 µM) | > 200 | > 100 | > 40 | 35 (≈ 92.1 µM) | 20 (≈ 52.6 µM) | 30 (≈ 78.9 µM) | – | 50 (≈ 132 µM) | – | 20 (≈ 52.6 µM) | – | > 40 | MIC (Human alphaherpesvirus 3 [22]): 22 µg/mL (≈ 57.9 µM)
14 | CCSCc1cnc2cc(C)ccn12 | 11 (≈ 53.3 µM) | 40 | 100 | 200 | > 10 | – | 10 (≈ 48.5 µM) | – | 35 (≈ 170 µM) | – | > 10 | – | > 10 | MIC (Human alphaherpesvirus 3 [23]): > 10 µg/mL; MIC (Human alphaherpesvirus 3 [18]): > 10 µg/mL
15 | Cc1c(Br)cn2c(CSCc3ccccc3)cnc2c1Br | 5 (≈ 11.7 µM) | 40 | 40 | 40 | – | – | – | – | 30 (≈ 70.4 µM) | 1.8 (≈ 4.22 µM) | – | 2.7 (≈ 6.34 µM) | – | MIC (Cytomegalovirus [12]): 2 µg/mL (≈ 4.69 µM); MIC (Human alphaherpesvirus 3 [24]): 2 µg/mL (≈ 4.69 µM); MIC (Human alphaherpesvirus 3 [22]): 2.3 µg/mL (≈ 5.4 µM); MIC (Cytomegalovirus [16]): > 1 µg/mL
